This note sets out measurements from patent US11130748B2, “Compounds” (MISSION THERAPEUTICS LIMITED, priority 2015, dated 2021).

Molecules are shown by their SMILES.

The target in the first experiment is USP30 (Homo sapiens (Human), UniProt Q70CQ3). The experiment can be described thus: USP30 biochemical IC50 assay.
USP30, sequence (Q70CQ3 57-517): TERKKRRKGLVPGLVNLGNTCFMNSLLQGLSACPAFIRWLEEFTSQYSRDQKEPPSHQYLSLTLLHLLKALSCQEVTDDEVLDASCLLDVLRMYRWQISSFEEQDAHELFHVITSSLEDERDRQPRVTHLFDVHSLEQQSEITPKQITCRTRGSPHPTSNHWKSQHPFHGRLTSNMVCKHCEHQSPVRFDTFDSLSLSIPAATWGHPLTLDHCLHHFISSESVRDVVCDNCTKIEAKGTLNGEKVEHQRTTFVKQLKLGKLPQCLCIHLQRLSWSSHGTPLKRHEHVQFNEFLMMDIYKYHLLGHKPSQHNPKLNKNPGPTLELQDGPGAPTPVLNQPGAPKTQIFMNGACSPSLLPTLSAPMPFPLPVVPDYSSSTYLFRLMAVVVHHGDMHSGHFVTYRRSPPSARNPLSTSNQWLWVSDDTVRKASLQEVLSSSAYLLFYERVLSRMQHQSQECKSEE
Settings: not given
As for the experimental part: USP30 Biochemical IC50 Assay
Dilution plates were prepared at 21 times the final concentration (2100 μM for a final concentration of 100 μM) in 50% DMSO in a 96-well polypropylene V-bottom plate (Greiner #651201). A typical 8-point dilution series to be 100, 30, 10, 3, 1, 0.3, 0.1, 0.03 μM final. Reactions were performed in duplicate in black 384 well plates (small volume, Greiner 784076) in a final reaction volume of 21 μl. Either 1 μl of 50% DMSO or diluted compound was added to the plate. USP30 was diluted in reaction buffer (40 mM Tris, pH 7.5, 0.005% Tween 20, 0.5 mg/ml BSA, 5 mM beta-mercaptoethanol) to the equivalent of 0.05 μl/well and 10 μl of diluted USP30 was added to the compound. Enzyme and compound were incubated for 30 min at room temp. Reactions were initiated by the addition of 50 nM of TAMRA labelled peptide linked to ubiquitin via an iso-peptide bond as fluorescence polarisation substrate. Reactions were read immediately after addition of substrate and following a 2 hr incubation at room temperature. Readings were performed on a Pherastar Plus (BMG Labtech). λ Excitation 540 nm; λ Emission 590 nm.
In the case of `N#CN1CCC(CNC(=O)c2nn(Cc3ccccc3)c3ccccc23)C1` (centres unmarked) [Example 29, 1-Benzyl-N-((1-cyanopyrrolidin-3-yl)methyl)-1H-indazole-3-carboxamide], the IC50 lay in the range of 1 to 10 µM.

Staying with this experiment, now noted: fluorescence polarisation, TAMRA labelled peptide linked to ubiquitin; 30 min pre-incubation, 2 hr read; read-out: IC50 range.
In the case of `COc1cccc(-n2cnc(C(=O)NC[C@H]3CCN(C#N)C3)c2)c1` [Example 74, (R)—N-((1-Cyanopyrrolidin-3-yl)methyl)-1-(3-methoxyphenyl)-1H-imidazole-4-carboxamide], the IC50 lay within 0.1 to 1 µM. Same read-out and setting: under `N#CN1CC[C@@H](CNc2nccc(-c3ccccc3)n2)C1` [Example 19, (S)-3-(((4-Phenylpyrimidin-2-yl)amino)methyl)pyrrolidine-1-carbonitrile] stands 1 to 10 µM; under `N#CN1CC[C@H](CNC(=O)c2cn3cc(Cl)ccc3n2)C1` [Example 35, (R)-6-Chloro-N-((1-cyanopyrrolidin-3-yl)methyl)imidazo[1,2-a]pyridine-2-carboxamide], 1 to 10 µM. Still for that read-out and setting: under `N#CN1CCC(CNC(=O)c2ccc(S(=O)(=O)Nc3ccccc3)cc2)C1` (centres unmarked) [Example 30, N-((1-Cyanopyrrolidin-3-yl)methyl)-4-(N-phenylsulfamoyl)benzamide] stands 0.1 to 1 µM; under `N#CN1CC[C@@H](CNC(=O)c2ccc3c(c2)NC(=O)CO3)C1` [Example 34, (S)—N-((1-Cyanopyrrolidin-3-yl)methyl)-3-oxo-3,4-dihydro-2H-benzo[b][1,4]oxazine-6-carboxamide], 1 to 10 µM. Still for that read-out and setting: as for `N#CN1CCC(CNC(=O)c2cncc(-c3ccc(F)cc3)c2)C1` (centres unmarked) [Example 33, N-((1-Cyanopyrrolidin-3-yl)methyl)-5-(4-fluorophenyl)nicotinamide], the figure is 0.1 to 1 µM.

On to `Cc1ccccc1-c1cc(C(=O)NCC2CCN(C#N)C2)[nH]n1` (centres unmarked) [Example 25, N-((1-Cyanopyrrolidin-3-yl)methyl)-3-(o-tolyl)-1H-pyrazole-5-carboxamide], for which the half-inhibitory concentration (IC50) was 0.1 to 1 µM. Regarding `CC(Nc1cc2ccccc2cn1)C1CCN(C#N)C1` (centres unmarked) [Example 50, 3-(1-(Isoquinolin-3-ylamino)ethyl)pyrrolidine-1-carbonitrile], the concentration for half-maximal inhibition (IC50) lay in the range of 1 to 10 µM. Take `COc1ccccc1-n1cnc(C(=O)NC[C@H]2CCN(C#N)C2)c1` [Example 73, (R)—N-((1-Cyanopyrrolidin-3-yl)methyl)-1-(2-methoxyphenyl)-1H-imidazole-4-carboxamide]: the IC50 lay in the range of 0.1 to 1 µM. Consider `N#CN1CC[C@H](CNC(=O)c2cn3cc(-c4cn[nH]c4)ccc3n2)C1` [Example 75, (R)—N-((1-Cyanopyrrolidin-3-yl)methyl)-6-(H-pyrazol-4-yl)imidazo[1,2-a]pyridine-2-carboxamide], for which the concentration for half-maximal inhibition (IC50) lay in the range of 1 to 10 µM. Same read-out and setting: as for `N#Cc1cccc(-c2nnc(C(=O)NC[C@H]3CCN(C#N)C3)o2)c1` [Example 68, (R)-5-(3-Cyanophenyl)-N-((1-cyanopyrrolidin-3-yl)methyl)-1,3,4-oxadiazole-2-carboxamide], the figure is < 0.1 µM; as for `N#CN1CC[C@H](CNC(=O)c2nc3ccccc3[nH]2)C1` [Example 56], 1 to 10 µM; as for `N#CN1CC[C@H](CNC(=O)c2ccc(-c3ccccc3)cn2)C1` [Example 60], 0.1 to 1 µM. The same measure, in the same setting: as for `N#Cc1cccc(-c2nnc(C(=O)NC[C@@H]3CCN(C#N)C3)o2)c1` [Example 69, (S)-5-(3-Cyanophenyl)-N-((1-cyanopyrrolidin-3-yl)methyl)-1,3,4-oxadiazole-2-carboxamide], the figure is < 0.1 µM.

Consider `N#CN1CCC(CNC(=O)c2ccc(-c3ccncc3)cc2)C1` (centres unmarked) [Example 24, N-((1-Cyanopyrrolidin-3-yl)methyl)-4-(pyridin-4-yl)benzamide], for which the IC50 was 0.1 to 1 µM.

Take `N#CN1CC[C@@H](CNc2ncc(-c3ccccc3)s2)C1` [Example 10, (S)-3-(((5-Phenylthiazol-2-yl)amino)methyl)pyrrolidine-1-carbonitrile]: the half-maximal inhibitory concentration (IC50) was 0.1 to 1 µM. As for `N#CN1C[C@H]2CN(c3ncc(-c4ccccc4)s3)C(=O)[C@H]2C1` [Example 54, (3aR,6aS)-4-Oxo-5-(5-phenylthiazol-2-yl)hexahydropyrrolo[3,4-c]pyrrole-2(1H)-carbonitrile], the IC50 lay in the range of 1 to 10 µM. `N#CN1CCC(CNc2nc3ccc(-c4cn[nH]c4)cc3s2)C1` (centres unmarked) [Example 11, 3-(((6-(1H-Pyrazol-4-yl)benzo[d]thiazol-2-yl)amino)methyl)pyrrolidine-1-carbonitrile]: the IC50 was 0.1 to 1 µM. Turning to `CC(Nc1nc2ccc(C#N)cc2s1)C1CCN(C#N)C1` (centres unmarked) [Example 53, 2-((1-(1-Cyanopyrrolidin-3-yl)ethyl)amino)benzo[d]thiazole-6-carbonitrile], the IC50 fell in the range of 1 to 10 µM. For the molecule `N#CN1CC[C@H](CNC(=O)c2cn(CC3CC3)cn2)C1` [Example 79, (R)—N-((1-Cyanopyrrolidin-3-yl)methyl)-1-(cyclopropylmethyl)-1H-imidazole-4-carboxamide], the IC50 fell in the range of 1 to 10 µM. The same measure, in the same setting: under `N#CN1CCC(CNC(=O)c2cc(N3CCCC3)ccn2)C1` (centres unmarked) [Example 27, N-((1-Cyanopyrrolidin-3-yl)methyl)-4-(pyrrolidin-1-yl)picolinamide] stands 0.1 to 1 µM. Same read-out and setting: under `Cc1oncc1-c1ccc2nc(NC(C)C3CCN(C#N)C3)sc2c1` (centres unmarked) [Example 48, 3-(1-((6-(5-Methylisoxazol-4-yl)benzo[d]thiazol-2-yl)amino)ethyl)pyrrolidine-1-carbonitrile] stands 0.1 to 1 µM. As to `N#CN1CCC(CNC(=O)Nc2cccc(Cl)c2)C1` (centres unmarked) [Example 41, 1-(3-Chlorophenyl)-3-((1-cyanopyrrolidin-3-yl)methyl)urea], the concentration for half-maximal inhibition (IC50) lay within 0.1 to 1 µM.

As to `N#CN1CCC(CNc2nccc3ccccc23)C1` (centres unmarked) [Example 3, 3-((Isoquinolin-1-ylamino)methyl)pyrrolidine-1-carbonitrile], the IC50 is 1 to 10 µM. On the same count and under the same terms, as for `CNC(=O)c1ccc2cnc(NCC3CCN(C#N)C3)cc2c1` (centres unmarked) [Example 17, 3-(((1-Cyano-pyrrolidin-3-yl)methyl)amino)-N-methylisoquinoline-6-carboxamide], the figure is 1 to 10 µM; as for `N#CN1CCC(CNc2ccc(-c3ccccc3)cn2)C1` (centres unmarked) [Example 6, 3-(((5-Phenylpyridin-2-yl)amino)methyl)pyrrolidine-1-carbonitrile], 1 to 10 µM. `N#CN1CC[C@H](CNC(=O)c2cc(-c3cccc(Cl)c3)no2)C1` [Example 55, (R)-3-(3-Chlorophenyl)-N-((1-cyanopyrrolidin-3-yl)methyl)isoxazole-5-carboxamide]: the IC50 was < 0.1 µM. Turning to `Cn1cc(-c2ccc3nc(C(=O)NCC4CCN(C#N)C4)cn3c2)cn1` (centres unmarked) [Example 39, N-((1-Cyanopyrrolidin-3-yl)methyl)-6-(1-methyl-1H-pyrazol-4-yl)imidazo[1,2-a]pyridine-2-carboxamide], the IC50 is 1 to 10 µM.

In the case of `Cc1ccc(F)c(NC(=O)NCC2CCN(C#N)C2)c1` (centres unmarked) [Example 42, 1-((1-Cyanopyrrolidin-3-yl)methyl)-3-(2-fluoro-5-methylphenyl)urea], the half-maximal inhibitory concentration (IC50) lay within 0.1 to 1 µM. Take `N#CN1CCC(CNc2ccc3ccccc3n2)C1` (centres unmarked) [Example 1, 3-((Quinolin-2-ylamino)methyl)pyrrolidine-1-carbonitrile]: the half-inhibitory concentration (IC50) was 1 to 10 µM. The same measure, in the same setting: under `Cc1nc(-c2cccc(S(=O)(=O)N(C)CC3CCN(C#N)C3)c2)cs1` (centres unmarked) [Example 46, N-((1-Cyanopyrrolidin-3-yl)methyl)-N-methyl-3-(2-methylthiazol-4-yl)-benzenesulfonamide] stands 0.1 to 1 µM.
